Earlier results in patent US7598403B2, “Synthesis of chromanones” (priority 2003, dated 2009).

Test system: day-old broiler chicks
Settings: administered to day-old broiler chicks (Lee et al., 1985)

CC1(C)CC(=O)c2c(ccc(C(=O)CC(N)CO)c2N)O1 (racemic) [FC101, 5-amino-2,2-dimethyl-6-[3′-(R,S)amino-4′-hydroxy-butan-1-one]-2,3-dihydro-4H-1-benzopyran-4-one]
induction of Avian Tibial Dyschondroplasia (ATD): cause ATD
